{"source": "ChEMBL document CHEMBL5365534", "about": "“Discovery of a Novel Ketohexokinase Inhibitor with Improved Drug Distribution in Target Tissue for the Treatment of Fructose Metabolic Disease” (J Med Chem, 2023)", "key": {"in vivo [1]": {"assay": "in vivo", "conditions": "Sprague-Dawley, rat, liver, po, 10 mg/kg", "description": "Drug concentration in Sprague-Dawley rat liver at 10 mg/kg, po administered as single dose measured upto 24 hrs by LC-MS/MS analysis"}, "in vivo [2]": {"assay": "in vivo", "conditions": "Sprague-Dawley, rat, plasma, po, 10 mg/kg", "description": "Drug concentration in Sprague-Dawley rat plasma at 10 mg/kg, po administered as single dose measured upto 24 hrs by LC-MS/MS analysis"}, "[3]": {"target": "Voltage-gated inwardly rectifying potassium channel KCNH2 (Homo sapiens, UniProt Q12809)", "sequence (Q12809 whole entry)": "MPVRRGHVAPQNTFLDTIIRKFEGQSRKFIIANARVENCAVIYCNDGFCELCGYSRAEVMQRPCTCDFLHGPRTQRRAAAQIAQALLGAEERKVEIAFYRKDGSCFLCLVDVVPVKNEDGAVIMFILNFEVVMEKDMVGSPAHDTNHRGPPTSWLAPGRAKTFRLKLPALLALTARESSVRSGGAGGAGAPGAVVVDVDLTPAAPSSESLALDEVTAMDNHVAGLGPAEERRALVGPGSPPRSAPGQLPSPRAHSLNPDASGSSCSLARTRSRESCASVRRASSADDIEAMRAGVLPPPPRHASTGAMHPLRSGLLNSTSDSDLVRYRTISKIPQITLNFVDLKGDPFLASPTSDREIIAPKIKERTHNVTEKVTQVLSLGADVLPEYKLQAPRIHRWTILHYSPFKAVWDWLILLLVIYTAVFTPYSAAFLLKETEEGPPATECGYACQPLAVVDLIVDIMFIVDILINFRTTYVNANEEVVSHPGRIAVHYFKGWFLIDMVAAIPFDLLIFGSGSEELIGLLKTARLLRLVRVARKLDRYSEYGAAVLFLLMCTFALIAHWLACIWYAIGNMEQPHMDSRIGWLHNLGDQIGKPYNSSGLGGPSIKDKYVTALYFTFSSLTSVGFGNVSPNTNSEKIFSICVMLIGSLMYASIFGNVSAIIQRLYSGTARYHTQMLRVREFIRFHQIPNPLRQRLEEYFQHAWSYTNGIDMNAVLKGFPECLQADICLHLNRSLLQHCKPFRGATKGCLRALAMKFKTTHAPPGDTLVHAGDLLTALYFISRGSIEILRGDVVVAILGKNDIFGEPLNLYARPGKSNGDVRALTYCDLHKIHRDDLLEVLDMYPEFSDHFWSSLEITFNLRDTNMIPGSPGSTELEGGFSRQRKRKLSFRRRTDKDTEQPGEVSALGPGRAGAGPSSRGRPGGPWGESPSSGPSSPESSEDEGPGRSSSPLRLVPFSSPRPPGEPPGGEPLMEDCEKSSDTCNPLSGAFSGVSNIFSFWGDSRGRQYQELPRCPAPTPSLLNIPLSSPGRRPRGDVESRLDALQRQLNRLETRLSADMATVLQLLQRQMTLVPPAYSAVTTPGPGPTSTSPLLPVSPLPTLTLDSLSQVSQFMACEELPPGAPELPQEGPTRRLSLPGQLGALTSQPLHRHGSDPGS", "description": "Inhibition of human ERG expressed in HEK293 cells by manual-patch clamp assay"}, "Cytochrome P450 2C19": {"target": "Cytochrome P450 2C19 (Homo sapiens, UniProt P33261)", "sequence (P33261 whole entry)": "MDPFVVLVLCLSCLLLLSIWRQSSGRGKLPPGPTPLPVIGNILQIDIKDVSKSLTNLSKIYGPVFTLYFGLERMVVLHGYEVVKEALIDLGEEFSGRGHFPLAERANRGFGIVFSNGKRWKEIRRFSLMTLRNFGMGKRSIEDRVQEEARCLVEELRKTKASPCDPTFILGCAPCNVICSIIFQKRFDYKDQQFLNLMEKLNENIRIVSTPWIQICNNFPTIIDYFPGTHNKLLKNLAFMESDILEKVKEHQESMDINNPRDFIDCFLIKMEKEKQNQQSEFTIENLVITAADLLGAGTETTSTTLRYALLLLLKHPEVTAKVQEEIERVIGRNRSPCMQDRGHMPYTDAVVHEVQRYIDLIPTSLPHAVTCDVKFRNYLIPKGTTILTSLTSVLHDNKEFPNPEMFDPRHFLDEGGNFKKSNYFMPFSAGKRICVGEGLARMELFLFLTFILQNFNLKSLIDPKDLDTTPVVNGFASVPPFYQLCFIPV", "description": "Inhibition of CYP2C19 in human liver microsomes at 0.1 to 30 uM measured for 5 mins in presence of NADPH by LC-MS/MS analysis"}, "[4]": {"assay": "Drug metabolism in mouse hepatocytes assessed as glycine conjugation metabolite at 10 uM measured upto 240 mins by LC-MS/MS analysis", "assay_type": "ADME, cell-based, Hepatocyte", "conditions": "4 h"}, "Cytochrome P450 2C9 [5]": {"target": "T1, Cytochrome P450 2C9 (Homo sapiens, UniProt P11712)", "T1 sequence (P11712 whole entry)": "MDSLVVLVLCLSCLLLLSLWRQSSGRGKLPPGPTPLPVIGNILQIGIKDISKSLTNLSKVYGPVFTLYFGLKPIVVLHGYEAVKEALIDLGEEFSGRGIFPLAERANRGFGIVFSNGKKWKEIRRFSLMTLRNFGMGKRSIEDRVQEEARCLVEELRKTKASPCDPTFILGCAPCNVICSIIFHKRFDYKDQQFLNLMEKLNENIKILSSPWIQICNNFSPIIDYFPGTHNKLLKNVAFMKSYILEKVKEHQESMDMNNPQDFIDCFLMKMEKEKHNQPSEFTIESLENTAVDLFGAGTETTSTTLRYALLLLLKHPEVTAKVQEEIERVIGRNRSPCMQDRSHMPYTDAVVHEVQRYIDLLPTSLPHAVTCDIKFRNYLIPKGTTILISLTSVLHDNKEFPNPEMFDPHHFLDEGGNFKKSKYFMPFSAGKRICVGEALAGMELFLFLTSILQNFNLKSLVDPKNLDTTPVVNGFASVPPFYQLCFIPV", "assay": "Time dependent inhibition of CYP2C9 in human liver microsomes at 10 uM preincubated for 30 mins followed by substrate addition and measured after 15 mins in presence of NADPH by LC-MS/MS analysis", "assay_type": "ADME, Microsome"}, "Cytochrome P450 1A2": {"target": "T2, Cytochrome P450 1A2 (Homo sapiens, UniProt P05177)", "T2 sequence (P05177 whole entry)": "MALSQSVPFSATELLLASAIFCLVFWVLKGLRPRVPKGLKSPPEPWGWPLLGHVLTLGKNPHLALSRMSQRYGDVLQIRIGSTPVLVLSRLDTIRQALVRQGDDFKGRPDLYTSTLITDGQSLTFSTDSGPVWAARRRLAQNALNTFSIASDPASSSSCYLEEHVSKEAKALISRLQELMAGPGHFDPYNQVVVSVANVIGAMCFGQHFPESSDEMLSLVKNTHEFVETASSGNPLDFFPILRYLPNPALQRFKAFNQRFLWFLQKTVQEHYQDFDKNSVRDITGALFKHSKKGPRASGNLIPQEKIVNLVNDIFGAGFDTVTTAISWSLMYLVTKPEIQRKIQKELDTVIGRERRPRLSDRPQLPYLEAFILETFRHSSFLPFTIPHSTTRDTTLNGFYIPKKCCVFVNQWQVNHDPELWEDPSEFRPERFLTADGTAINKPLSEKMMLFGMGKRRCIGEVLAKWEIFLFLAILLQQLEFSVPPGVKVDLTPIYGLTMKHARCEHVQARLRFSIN", "description": "Inhibition of CYP1A2 in human liver microsomes at 0.1 to 30 uM measured for 5 mins in presence of NADPH by LC-MS/MS analysis"}, "in vitro [6]": {"assay": "in vitro", "conditions": "human, Caco-2", "description": "Efflux ratio of apparent permeability across basolateral to apical membrane over apical to basolateral membrane in human Caco-2 cells"}, "[7]": {"assay": "Drug metabolism in dog hepatocytes assessed as glycine conjugation metabolite at 10 uM measured upto 240 mins by LC-MS/MS analysis", "assay_type": "ADME, cell-based, Canis lupus familiaris, Hepatocyte", "conditions": "4 h"}, "in vivo [8]": {"assay": "in vivo", "conditions": "Sprague-Dawley, rat, lung, po, 10 mg/kg", "description": "Drug concentration in Sprague-Dawley rat lung at 10 mg/kg, po administered as single dose measured upto 24 hrs by LC-MS/MS analysis"}, "in vivo [9]": {"assay": "in vivo", "conditions": "Sprague-Dawley, rat, liver/plasma, po, 10 mg/kg", "description": "Ratio of drug concentration in Sprague-Dawley rat liver to plasma at 10 mg/kg, po administered as single dose measured upto 24 hrs by LC-MS/MS analysis"}, "[10]": {"assay": "AUC (0 to t) in Sprague-Dawley rat at 10 mg/kg, po administered as single dose measured upto 24 hrs by LC-MS/MS analysis", "assay_type": "ADME, organism-based", "set-up": "time < 24 hrs, dose 10 mg/kg, route po", "conditions": "in vivo"}, "in vitro [11]": {"assay": "in vitro", "conditions": "human, HepG2 cells", "description": "Mitotoxicity in human HepG2 cells incubated for 2 hrs by Celltiter-Glo assay"}, "Cytochrome P450 2D6 [12]": {"target": "T3, Cytochrome P450 2D6 (Homo sapiens, UniProt P10635)", "T3 sequence (P10635 whole entry)": "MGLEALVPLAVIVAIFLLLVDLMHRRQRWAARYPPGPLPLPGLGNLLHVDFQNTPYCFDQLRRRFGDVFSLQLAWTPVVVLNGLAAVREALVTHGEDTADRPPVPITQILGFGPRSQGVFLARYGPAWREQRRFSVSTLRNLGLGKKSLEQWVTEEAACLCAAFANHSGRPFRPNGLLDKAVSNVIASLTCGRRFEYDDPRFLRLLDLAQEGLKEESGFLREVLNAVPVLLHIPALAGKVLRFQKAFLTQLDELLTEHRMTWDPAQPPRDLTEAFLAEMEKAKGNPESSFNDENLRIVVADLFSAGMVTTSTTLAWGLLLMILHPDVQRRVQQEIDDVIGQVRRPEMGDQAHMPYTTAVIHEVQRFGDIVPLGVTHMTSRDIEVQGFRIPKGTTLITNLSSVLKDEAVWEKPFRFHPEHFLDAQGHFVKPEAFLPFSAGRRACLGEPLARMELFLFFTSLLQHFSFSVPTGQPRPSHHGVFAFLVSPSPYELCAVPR", "description": "Inhibition of CYP2D6 in human liver microsomes at 0.1 to 30 uM measured for 5 mins in presence of NADPH by LC-MS/MS analysis"}, "[13]": {"assay": "AUC (0 to t) in Sprague-Dawley rat at 10 mg/kg, iv administered as single dose measured upto 24 hrs by LC-MS/MS analysis", "assay_type": "ADME, organism-based", "set-up": "dose 10 mg/kg, time < 24 hrs, route iv", "conditions": "in vivo"}, "[14]": {"assay": "Drug metabolism in rat hepatocytes assessed as glycine conjugation metabolite at 10 uM measured upto 240 mins by LC-MS/MS analysis", "assay_type": "ADME, cell-based, Hepatocyte", "conditions": "4 h"}, "Cytochrome P450 2C9 [15]": {"target": "T1, Cytochrome P450 2C9", "description": "Inhibition of CYP2C9 in human liver microsomes at 0.1 to 30 uM measured for 5 mins in presence of NADPH by LC-MS/MS analysis"}, "[16]": {"assay": "MRT (0 to t) in Sprague-Dawley rat at 10 mg/kg, iv administered as single dose measured upto 24 hrs by LC-MS/MS analysis", "assay_type": "ADME, organism-based", "conditions": "in vivo"}, "[17]": {"assay": "Clearance in Beagle dog at 1 mg/kg, iv administered as single dose measured upto 24 hrs by LC-MS/MS analysis", "assay_type": "ADME, organism-based, Canis lupus familiaris", "conditions": "in vivo"}, "[18]": {"assay": "AUC (0 to infinity) in Beagle dog at 1 mg/kg, iv administered as single dose measured upto 24 hrs by LC-MS/MS analysis", "assay_type": "ADME, organism-based, Canis lupus familiaris", "set-up": "time < 24 hrs, dose 1 mg/kg, route iv", "conditions": "in vivo"}, "[19]": {"assay": "AUC (0 to infinity) in Sprague-Dawley rat at 10 mg/kg, iv administered as single dose measured upto 24 hrs by LC-MS/MS analysis", "assay_type": "ADME, organism-based", "set-up": "dose 10 mg/kg, time < 24 hrs, route iv", "conditions": "in vivo"}, "in vitro [20]": {"assay": "in vitro", "conditions": "dog, liver microsomes"}, "[21]": {"assay": "Metabolic stability in rat hepatocyte assessed as parent compound remaining at 10 uM measured after 4 hrs by LC-MS/MS analysis", "assay_type": "ADME, cell-based", "conditions": "hepatocytes, read-out: Stability"}, "Cytochrome P450 3A4": {"target": "Cytochrome P450 3A4 (Homo sapiens, UniProt P08684)", "sequence (P08684 whole entry)": "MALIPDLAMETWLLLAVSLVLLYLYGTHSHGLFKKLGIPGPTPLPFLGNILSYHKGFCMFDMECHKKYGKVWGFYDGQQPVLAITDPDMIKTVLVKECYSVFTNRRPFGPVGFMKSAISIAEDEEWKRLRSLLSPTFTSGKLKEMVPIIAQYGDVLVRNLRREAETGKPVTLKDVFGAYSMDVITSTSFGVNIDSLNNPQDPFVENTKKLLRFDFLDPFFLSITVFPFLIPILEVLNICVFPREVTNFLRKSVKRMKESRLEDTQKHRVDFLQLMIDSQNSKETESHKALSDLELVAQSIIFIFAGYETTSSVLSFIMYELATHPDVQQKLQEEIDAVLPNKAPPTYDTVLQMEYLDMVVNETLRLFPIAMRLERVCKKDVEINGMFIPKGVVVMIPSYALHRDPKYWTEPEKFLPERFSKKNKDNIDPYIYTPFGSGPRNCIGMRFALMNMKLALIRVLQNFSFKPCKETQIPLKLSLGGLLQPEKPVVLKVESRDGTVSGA", "description": "Inhibition of CYP3A4 in human liver microsomes at 0.1 to 30 uM measured for 5 mins in presence of NADPH by LC-MS/MS analysis"}, "[22]": {"assay": "Elimination half life in Beagle dog at 1 mg/kg, iv administered as single dose measured upto 24 hrs by LC-MS/MS analysis", "assay_type": "ADME, organism-based, Canis lupus familiaris", "conditions": "in vivo, read-out: beta t1/2 (converted)"}, "[23]": {"assay": "Drug metabolism in mouse hepatocytes assessed as glucuronidation metabolite at 10 uM measured upto 240 mins by LC-MS/MS analysis", "assay_type": "ADME, cell-based, Hepatocyte", "conditions": "4 h"}, "[24]": {"assay": "MRT (0 to t) in Beagle dog at 5 mg/kg, po administered as single dose measured upto 24 hrs by LC-MS/MS analysis", "assay_type": "ADME, organism-based, Canis lupus familiaris", "conditions": "in vivo"}, "Cytochrome P450 2D6 [25]": {"target": "T3, Cytochrome P450 2D6", "assay": "Time dependent inhibition of CYP2D6 in human liver microsomes at 10 uM preincubated for 30 mins followed by substrate addition and measured after 15 mins in presence of NADPH by LC-MS/MS analysis", "assay_type": "ADME, Microsome"}, "in vitro [26]": {"assay": "in vitro", "conditions": "mouse, liver microsomes"}, "Rattus norvegicus": {"tested_on": "Rattus norvegicus", "assay": "In vivo inhibition of KHK in 16 hr fasted Sprague-Dawley rat assessed as inhibition of metabolic clearance of fructose at 50 to 150 mg/kg, po pretreated for 1 hr followed fructose induction and measured after 0.5 to 3 hrs by ELISA method", "assay_type": "functional, organism-based", "conditions": "dose lower 50.0 mg/kg, dose upper […], time upper 4.0 hrs"}, "[27]": {"assay": "Elimination half life in Beagle dog at 5 mg/kg, po administered as single dose measured upto 24 hrs by LC-MS/MS analysis", "assay_type": "ADME, organism-based, Canis lupus familiaris", "conditions": "in vivo, read-out: beta t1/2 (converted)"}, "Ketohexokinase": {"target": "T4, Ketohexokinase (Homo sapiens, UniProt P50053)", "T4 sequence (P50053 whole entry)": "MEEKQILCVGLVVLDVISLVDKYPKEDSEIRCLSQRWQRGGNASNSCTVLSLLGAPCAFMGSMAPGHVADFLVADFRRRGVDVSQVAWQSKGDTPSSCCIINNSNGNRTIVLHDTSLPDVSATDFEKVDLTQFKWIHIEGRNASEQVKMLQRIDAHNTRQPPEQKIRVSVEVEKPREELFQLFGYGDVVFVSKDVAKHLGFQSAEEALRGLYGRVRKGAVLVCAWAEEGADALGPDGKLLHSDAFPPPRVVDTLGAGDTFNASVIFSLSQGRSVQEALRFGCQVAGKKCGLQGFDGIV", "description": "Inhibition of N-terminal his tagged human recombinant KHK-A expressed in Escherichia coli incubated for 60 mins in presence of ATP by ADP Glo assay"}}, "note": "Activity calls are given as the source filed them. The calls are words filed in the database; no cut-off is given here."}
{"smiles": "C[C@H]1CCN1c1nc(N2CC[C@H](CCC(=O)O)C2)c2c(n1)C(F)(F)CC2", "values": [{"measurement": "concentration at 24 h", "setting": "in vivo [1]", "value": 50100, "unit": "ng/g"}, {"measurement": "concentration at 24 h", "setting": "in vivo [2]", "value": 5080, "unit": "ng/mL"}, {"measurement": "IC50", "setting": "[3]", "value": "> 30", "unit": "µM"}, {"measurement": "IC50", "setting": "Cytochrome P450 2C19", "value": "> 30", "unit": "µM"}, {"measurement": "Drug metabolism", "setting": "[4]", "value": "Metabolite_Notdetected"}, {"measurement": "IC50", "setting": "Cytochrome P450 2C9 [5]", "value": "> 10", "unit": "µM"}, {"measurement": "IC50", "setting": "Cytochrome P450 1A2", "value": "> 30", "unit": "µM"}, {"measurement": "efflux ratio", "setting": "in vitro [6]", "value": 7.45}, {"measurement": "Drug metabolism", "setting": "[7]", "value": "Metabolite_Notdetected"}, {"measurement": "concentration at 24 h", "setting": "in vivo [8]", "value": 620, "unit": "ng/g"}, {"measurement": "Kp at 24 h", "setting": "in vivo [9]", "value": 9.9}, {"measurement": "AUCt", "setting": "[10]", "value": 39900, "unit": "ng·h/mL"}, {"measurement": "IC50 at 2 h", "setting": "in vitro [11]", "value": "> 150", "unit": "µM"}, {"measurement": "IC50", "setting": "Cytochrome P450 2D6 [12]", "value": "> 30", "unit": "µM"}, {"measurement": "AUCt", "setting": "[13]", "value": 73000, "unit": "ng·h/mL"}, {"measurement": "Drug metabolism", "setting": "[14]", "value": "Metabolite_Notdetected"}, {"measurement": "IC50", "setting": "Cytochrome P450 2C9 [15]", "value": "> 30", "unit": "µM"}, {"measurement": "MRT last at 24 h", "setting": "[16]", "value": 6.09, "unit": "h"}, {"measurement": "clearance", "setting": "[17]", "value": 3.06, "unit": "mL/min/kg"}, {"measurement": "AUC", "setting": "[18]", "value": 5580, "unit": "ng·h/mL"}, {"measurement": "AUC", "setting": "[19]", "value": 76200, "unit": "ng·h/mL"}, {"measurement": "microsomal CLint at 2 h, 1 µM", "setting": "in vitro [20]", "value": "< 6.4", "unit": "µL/min/mg"}, {"measurement": "remaining at 4 h, 10 µM", "setting": "[21]", "value": 98.2, "unit": "%"}, {"measurement": "IC50", "setting": "Cytochrome P450 3A4", "value": "> 30", "unit": "µM"}, {"measurement": "half-life", "setting": "[22]", "value": 5.1, "unit": "h"}, {"measurement": "Drug metabolism", "setting": "[23]", "value": "Metabolite_Notdetected"}, {"measurement": "MRT last at 24 h", "setting": "[24]", "value": 4.15, "unit": "h"}, {"measurement": "IC50", "setting": "Cytochrome P450 2D6 [25]", "value": "> 10", "unit": "µM"}, {"measurement": "microsomal CLint at 2 h, 1 µM", "setting": "in vitro [26]", "value": 8, "unit": "µL/min/mg"}, {"measurement": "inhibition", "setting": "Rattus norvegicus", "value": "Active"}, {"measurement": "half-life", "setting": "[27]", "value": 5.21, "unit": "h"}, {"measurement": "IC50", "setting": "Ketohexokinase", "value": 0.0572, "unit": "µM"}]}
